Measured values from patent publication US20050053591A1, “Compositions and uses of motor protein-binding moieties” (Insert Therapeutics, Inc., priority 2002, published 2005).

How the values were obtained:
[1] = biological target: FKBPs with a single amino acid substitution, Phe36Val (FV) (Homo sapiens, UniProt P62942, F37V); settings: FKBP Phe36Val (FV); cited from earlier work
wild-type FKBP = wild-type FKBP (Homo sapiens, UniProt P62942); settings: wild-type FKBP versus FV; cited from earlier work
Sequence of wild-type FKBP (P62942 whole entry): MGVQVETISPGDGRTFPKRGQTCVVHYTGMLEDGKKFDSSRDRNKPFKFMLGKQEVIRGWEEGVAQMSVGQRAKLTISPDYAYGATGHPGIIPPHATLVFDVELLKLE

DLC8 = DLC8 (Homo sapiens, UniProt P63167); settings: nine-residue peptide from the Bim protein (Lo et al.); cited from earlier work
Sequence of DLC8 (P63167 whole entry, species assumed): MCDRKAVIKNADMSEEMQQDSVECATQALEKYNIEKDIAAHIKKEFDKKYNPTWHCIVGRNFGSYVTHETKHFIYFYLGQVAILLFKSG

PC3 cells = test: Dynein-mediated transport to the nuclear surface in cultured cells (fluorescence microscopy, FIG. 1); format: cell-based; settings: rhodamine-labeled GFP plasmid conjugated to peptide, formulated with CD-IPEI at 5+/-, 1 μg plasmid, 5 hours exposure
Description: PC3 cells were plated at 100,000 cells/mL in 6-well plates containing a clean glass coverslip at the bottom of each well one day before transfection. For transfection, 1 μg of plasmid was mixed with a linear, cyclodextrin polycation (CD-IPEI) at 5+/− and mixed with cells in 1 mL of Opti-MEM. Transfection solution was removed 5 hours after exposure and replaced with complete media. Cells were washed with PBS, fixed with formalin (0.5 mL for 10 minutes), and washed 3 times with PBS. The coverslips were then removed from the wells and mounted on glass slides with Prolong Antifade (Molecular Probes, Eugene, Oreg.).

Sequence of FKBPs with a single amino acid substitution, Phe36Val (FV) (P62942 whole entry F37V): as the sequence (P62942 whole entry) above, with F37V counted along it

Row | Compound | binding affinity [1] | lower affinity to the wild-type protein relative to Phe36Val FKBP (wild-type FKBP) [fold] | DLC8 binding (DLC8) | transport of plasmid DNA toward the nucleus (PC3 cells)
1 | CC[C@H](C(=O)N1CCCC[C@H]1C(=O)O[C@H](CCc1ccc(OC)c(OC)c1)c1cccc(OCC(=O)NCCNC(=O)COc2cccc([C@@H](CCc3ccc(OC)c(OC)c3)OC(=O)[C@@H]3CCCCN3C(=O)[C@@H](CC)c3cc(OC)c(OC)c(OC)c3)c2)c1)c1cc(OC)c(OC)c(OC)c1 [AP1903] | subnanomolar | 1000 |  | 
2 | MSCDKSTQT [nine-peptide from the Bim protein] |  |  | can bind DLC8 | 
3 | CC[C@H](C(=O)N1CCCC[C@H]1C(=O)O[C@H](CCc1ccc(OC)c(OC)c1)c1cccc(OCC(=O)NCC(CNC(=O)COc2cccc([C@@H](CCc3ccc(OC)c(OC)c3)OC(=O)[C@@H]3CCCCN3C(=O)[C@@H](CC)c3cc(OC)c(OC)c(OC)c3)c2)CN(C)C)c1)c1cc(OC)c(OC)c(OC)c1 [AP20187] | subnanomolar | 1000 |  | 
4 | CSYSKETQPL [dynein-binding peptide] |  |  |  | facilitates transport toward the nucleus
